Like-named read-outs stand apart in the source and are kept apart here.
Molecular target: T1, F508delCFTR (Homo sapiens, UniProt P13569, DEL508-508)
T1 construct: expressed in transfected cells; host or cells: CFBE41o- (human lung derived epithelial cell line), doxycycline-inducible expression
Experiment: Cell Surface Expression-Horse Radish Peroxidase (CSE-HRP) assay
Format: cell-based
Details: CFBE41o-F508delCFTR-HRP cells; for Maximum % activity (with co-corrector): with co-corrector (2 μM); for Maximum % activity (with co-corrector) / Maximum % activity (without co-corrector): normalized to on-plate positive control, highest concentration 20 μM
Summary of the method: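 Surface F508delCFTR-HRP was read by luminol luminescence after 18–24 h compound exposure at 33 °C, without or with 2 μM co-corrector. Doses were eight 3-fold steps from 20 μM, in doxycycline-induced (0.5 μg/mL, 72 h) CFBE41o- cells. % activity was scaled to the on-plate 2 μM positive control minus DMSO; EC50 came from a variable-slope sigmoid fit.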

[1] = test compound without co-corrector, 18-24 hours at 33° C., read-out: EC50 (without co-corrector)
[2] = with co-corrector (2 μM of 3-[(2R,4R)-4-({[1-(2,2-difluoro-1,3-benzodioxol-5-yl)cyclopropyl]carbonyl}amino)-7-methoxy-3,4-dihydro-2H-chromen-2-yl]benzoic acid), read-out: EC50 (with co-corrector)

T1 sequence (P13569 with tags, fused parts or gaps DEL508-508): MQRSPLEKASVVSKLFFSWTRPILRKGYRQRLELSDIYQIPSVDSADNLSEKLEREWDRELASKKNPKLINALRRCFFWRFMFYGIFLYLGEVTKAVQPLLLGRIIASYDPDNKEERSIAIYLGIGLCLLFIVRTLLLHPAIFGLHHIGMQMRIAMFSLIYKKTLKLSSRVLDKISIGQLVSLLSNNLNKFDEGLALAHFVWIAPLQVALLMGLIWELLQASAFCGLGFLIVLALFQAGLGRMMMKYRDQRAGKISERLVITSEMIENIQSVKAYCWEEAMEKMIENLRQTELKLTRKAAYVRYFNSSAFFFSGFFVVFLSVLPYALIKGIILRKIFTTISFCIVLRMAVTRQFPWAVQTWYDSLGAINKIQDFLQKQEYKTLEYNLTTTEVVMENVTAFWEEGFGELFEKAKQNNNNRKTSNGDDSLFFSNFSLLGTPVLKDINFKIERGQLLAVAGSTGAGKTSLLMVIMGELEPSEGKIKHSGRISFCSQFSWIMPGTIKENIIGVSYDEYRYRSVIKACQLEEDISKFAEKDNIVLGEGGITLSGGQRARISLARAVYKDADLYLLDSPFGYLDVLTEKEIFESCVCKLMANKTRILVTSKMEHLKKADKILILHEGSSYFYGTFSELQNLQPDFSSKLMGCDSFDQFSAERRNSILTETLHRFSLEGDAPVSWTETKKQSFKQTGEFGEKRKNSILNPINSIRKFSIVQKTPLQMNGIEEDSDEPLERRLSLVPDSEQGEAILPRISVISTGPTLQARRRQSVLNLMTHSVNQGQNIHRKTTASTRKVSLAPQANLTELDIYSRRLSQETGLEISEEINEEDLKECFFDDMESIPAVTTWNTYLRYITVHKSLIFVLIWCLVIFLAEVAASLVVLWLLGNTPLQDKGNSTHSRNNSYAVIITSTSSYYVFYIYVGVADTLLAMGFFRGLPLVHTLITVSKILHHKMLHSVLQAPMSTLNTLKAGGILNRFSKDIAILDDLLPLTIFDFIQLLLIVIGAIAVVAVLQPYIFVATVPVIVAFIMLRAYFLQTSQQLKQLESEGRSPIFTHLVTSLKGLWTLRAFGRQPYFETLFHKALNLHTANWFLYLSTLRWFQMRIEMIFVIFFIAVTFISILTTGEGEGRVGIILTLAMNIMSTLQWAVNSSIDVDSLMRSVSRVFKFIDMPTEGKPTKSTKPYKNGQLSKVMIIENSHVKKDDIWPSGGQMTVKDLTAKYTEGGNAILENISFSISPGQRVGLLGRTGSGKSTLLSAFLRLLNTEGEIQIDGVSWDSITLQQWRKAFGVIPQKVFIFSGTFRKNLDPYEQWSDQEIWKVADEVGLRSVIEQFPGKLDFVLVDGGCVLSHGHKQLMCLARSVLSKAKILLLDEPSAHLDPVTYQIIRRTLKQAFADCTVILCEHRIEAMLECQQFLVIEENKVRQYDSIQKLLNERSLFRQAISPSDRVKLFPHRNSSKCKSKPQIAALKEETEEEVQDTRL

Compound | EC50 [1] | EC50 [2] | Maximum % activity (with co-corrector) | Maximum % activity (without co-corrector)
COc1ccc(Cl)cc1CO[C@@H]1[C@@H](C(C)(C)C)[C@H](C(=O)O)N(C(=O)OC2CCC2)[C@@H]1c1ccccc1 (racemic) [Example 35, rac-(2R,3S,4R,5R)-3-tert-butyl-4-[(5-chloro-2-methoxyphenyl)methoxy]-1-[(cyclobutyloxy)carbonyl]-5-phenylpyrrolidine-2-carboxylic acid] | 1 to 10 µM | 1 to 10 µM | +++ (≥350) | ++ (≥100 and <200)
C=C(CO[C@H]1[C@H](C(C)(C)C)[C@@H](C(=O)O)N(C(=O)[C@@H]2CCCCO2)[C@H]1c1ccccc1C)c1cc(C(F)(F)F)ccc1OC [Example 249, (2S,3R,4S,5S)-3-tert-butyl-4-({2-[2-methoxy-5-(trifluoromethyl)phenyl]prop-2-en-1-yl}oxy)-5-(2-methylphenyl)-1-[(2S)-oxane-2-carbonyl]pyrrolidine-2-carboxylic acid] | 1 to 10 µM | < 1 µM | +++ (≥350) | +++ (≥200)
COc1ncc(C2CCC2)cc1CO[C@H]1[C@H](C(C)(C)C)[C@@H](C(=O)O)N(C(=O)[C@@H]2CCCCO2)[C@H]1c1ccccc1C(C)C [Example 176, (2S,3R,4S,5S)-3-tert-butyl-4-[(5-cyclobutyl-2-methoxypyridin-3-yl)methoxy]-1-[(2S)-oxane-2-carbonyl]-5-[2-(propan-2-yl)phenyl]pyrrolidine-2-carboxylic acid] | 1 to 10 µM | < 1 µM | +++ (≥350) | +++ (≥200)
COc1ncc(C(F)(F)F)cc1CO[C@H]1[C@H](C(C)(C)C)[C@@H](C(=O)O)N(C(=O)[C@@H]2CCCCO2)[C@H]1c1cccc(Cl)c1 [Example 123, (2S,3R,4S,5S)-3-tert-butyl-5-(3-chlorophenyl)-4-{[2-methoxy-5-(trifluoromethyl)pyridin-3-yl]methoxy}-1-[(2S)-oxane-2-carbonyl]pyrrolidine-2-carboxylic acid] | 1 to 10 µM | < 1 µM | +++ (≥350) | ++ (≥100 and <200)
COc1ncc(C2CCC2)cc1CO[C@H]1[C@H](C(C)(C)C)[C@@H](C(=O)O)N(C(=O)C2CCCCC2)[C@H]1c1ccccc1F [Example 56, (2S,3R,4S,5S)-3-tert-butyl-4-[(5-cyclobutyl-2-methoxypyridin-3-yl)methoxy]-1-(cyclohexanecarbonyl)-5-(2-fluorophenyl)pyrrolidine-2-carboxylic acid] | < 1 µM | < 1 µM | +++ (≥350) | ++ (≥100 and <200)
COc1ncc(C2CCC2)cc1CO[C@H]1[C@H](C(C)(C)C)[C@@H](C(=O)O)N(C(=O)[C@@H]2CCCCO2)[C@H]1c1cc(Cl)ccc1C [Example 229, (2S,3R,4S,5S)-3-tert-butyl-5-(5-chloro-2-methylphenyl)-4-[(5-cyclobutyl-2-methoxypyridin-3-yl)methoxy]-1-[(2S)-oxane-2-carbonyl]pyrrolidine-2-carboxylic acid] | 1 to 10 µM | < 1 µM | ++ (≥150 and <350) | + (<100)
COc1ccc(C(F)(F)F)cc1CO[C@H]1[C@H](C(C)(C)C)[C@@H](C(=O)O)N(C(=O)[C@@H]2CCCO2)[C@H]1c1cccnc1C(F)(F)F [Example 113, (2S,3R,4S,5S)-3-tert-butyl-4-{[2-methoxy-5-(trifluoromethyl)phenyl]methoxy}-1-[(2S)-oxolane-2-carbonyl]-5-[2-(trifluoromethyl)pyridin-3-yl]pyrrolidine-2-carboxylic acid] | 1 to 10 µM | 1 to 10 µM | ++ (≥150 and <350) | + (<100)
COc1ncc(C(F)(F)F)cc1CO[C@H]1[C@H](C(C)(C)C)[C@@H](C(=O)O)N(C(=O)[C@@H]2CCCO2)[C@H]1c1ccccc1C(C)C [Example 98, (2S,3R,4S,5S)-3-tert-butyl-4-{[2-methoxy-5-(trifluoromethyl)pyridin-3-yl]methoxy}-1-[(2S)-oxolane-2-carbonyl]-5-[2-(propan-2-yl)phenyl]pyrrolidine-2-carboxylic acid] | < 1 µM | < 1 µM | +++ (≥350) | ++ (≥100 and <200)
COc1cc(OC)nc(CO[C@@H]2[C@@H](C(C)(C)C)[C@H](C(=O)O)N(C(=O)C3CCCCC3)[C@@H]2c2ccccc2)n1 (racemic) [Example 11, rac-(2R,3S,4R,5R)-3-tert-butyl-1-(cyclohexanecarbonyl)-4-[(4,6-dimethoxypyrimidin-2-yl)methoxy]-5-phenylpyrrolidine-2-carboxylic acid] | 1 to 10 µM | 1 to 10 µM | +++ (≥350) | ++ (≥100 and <200)

Second part, the molecule after the results:

EC50 [1] | EC50 [2] | Maximum % activity (with co-corrector) | Maximum % activity (without co-corrector) | Compound
1 to 10 µM | 1 to 10 µM | +++ (≥350) | ++ (≥100 and <200) | COc1ncc(C(F)(F)F)cc1CO[C@H]1[C@H](C(C)(C)C)[C@@H](C(=O)O)N(C(=O)[C@H]2CCCCO2)[C@H]1c1ccccc1C(C)C [Example 97, (2S,3R,4S,5S)-3-tert-butyl-4-{[2-methoxy-5-(trifluoromethyl)pyridin-3-yl]methoxy}-1-[(2R)-oxane-2-carbonyl]-5-[2-(propan-2-yl)phenyl]pyrrolidine-2-carboxylic acid]
1 to 10 µM | 1 to 10 µM | +++ (≥350) | +++ (≥200) | COc1ccc(Br)cc1CO[C@H]1[C@H](C(C)(C)C)[C@@H](C(=O)O)N(C(=O)[C@@H]2CCC[C@@H](OC)C2)[C@H]1c1ccccc1 [Example 37, (2S,3R,4S,5S)-4-[(5-bromo-2-methoxyphenyl)methoxy]-3-tert-butyl-1-[(1R,3R)-3-methoxycyclohexane-1-carbonyl]-5-phenylpyrrolidine-2-carboxylic acid]
1 to 10 µM | 1 to 10 µM | +++ (≥350) | +++ (≥200) | COc1ccc(C(C)(C)C)cc1CO[C@H]1[C@H](C(C)(C)C)[C@@H](C(=O)O)N(C(=O)OC(C)C)[C@H]1c1ccccc1 [Example 47, (2S,3R,4S,5S)-3-tert-butyl-4-[(5-tert-butyl-2-methoxyphenyl)methoxy]-5-phenyl-1-{[(propan-2-yl)oxy]carbonyl}pyrrolidine-2-carboxylic acid]
< 1 µM | < 1 µM | ++ (≥150 and <350) | + (<100) | COc1ncc(C(F)(F)F)cc1CO[C@H]1[C@H](C(C)(C)C)[C@@H](C(=O)O)N(C(=O)[C@H]2CCCCO2)[C@H]1c1cccc(Cl)c1 [Example 125, (2S,3R,4S,5S)-3-tert-butyl-5-(3-chlorophenyl)-4-{[2-methoxy-5-(trifluoromethyl)pyridin-3-yl]methoxy}-1-[(2R)-oxane-2-carbonyl]pyrrolidine-2-carboxylic acid]
1 to 10 µM | < 1 µM | +++ (≥350) | +++ (≥200) | COc1ncc(C(F)(F)F)cc1CO[C@H]1[C@H](C(C)(C)C)[C@@H](C(=O)O)N(C(=O)[C@@H]2CCCCO2)[C@H]1c1ccccc1-c1cccc(N(C)C)c1 [Example 194, (2S,3R,4S,5S)-3-tert-butyl-5-[3′-(dimethylamino) [1,1′-biphenyl]-2-yl]-4-{[2-methoxy-5-(trifluoromethyl)pyridin-3-yl]methoxy}-1-[(2S)-oxane-2-carbonyl]pyrrolidine-2-carboxylic acid]
1 to 10 µM | < 1 µM | +++ (≥350) | ++ (≥100 and <200) | COc1ncc(C(F)(F)F)cc1CO[C@H]1[C@H](C(C)(C)C)[C@@H](C(=O)O)N(C(=O)[C@@H]2CCCO2)[C@H]1c1cccc(Br)c1 [Example 118, (2S,3R,4S,5S)-5-(3-bromophenyl)-3-tert-butyl-4-{[2-methoxy-5-(trifluoromethyl)pyridin-3-yl]methoxy}-1-[(2S)-oxolane-2-carbonyl]pyrrolidine-2-carboxylic acid]
1 to 10 µM | < 1 µM | +++ (≥350) | ++ (≥100 and <200) | COc1ncc(C(F)(F)F)cc1CO[C@H]1[C@H](C(C)(C)C)[C@@H](C(=O)O)N(C(=O)[C@@H]2CCCCO2)[C@H]1c1ccccc1 [Example 89, (2S,3R,4S,5S)-3-tert-butyl-4-{[2-methoxy-5-(trifluoromethyl)pyridin-3-yl]methoxy}-1-[(2S)-oxane-2-carbonyl]-5-phenylpyrrolidine-2-carboxylic acid]
< 1 µM | < 1 µM | +++ (≥350) | +++ (≥200) | COc1ccc(C(F)(F)F)cc1[C@@H](C)CO[C@H]1[C@H](C(C)(C)C)[C@@H](C(=O)O)N(C(=O)[C@@H]2CCCCO2)[C@H]1c1ccccc1C [Example 272, (2S,3R,4S,5S)-3-tert-butyl-4-{(2R)-2-[2-methoxy-5-(trifluoromethyl)phenyl]propoxy}-5-(2-methylphenyl)-1-[(2S)-oxane-2-carbonyl]pyrrolidine-2-carboxylic acid]

Reference: patent US10399940B2, “Substituted pyrrolidines and methods of use” (AbbVie S.à.r.l., priority 2016, dated 2019)
